Assay results published in US20220062240A1, “METHODS OF TREATING CANCER USING A CLK INHIBITOR” (BioSplice Therapeutics, Inc., priority 2018, published 2022).
Where two headings read alike, the source gives them in different places. Blank lines part the entries; values can stand above or below the molecule they belong to.

Tests used:
[1] = test system: ovarian cancer (4 cell lines); test: CellTiter-Glo Viability Assay, ovarian cancer; assay type: cell-based; conditions: Homo sapiens, inhibition of cancer cell proliferation
[2] = test system: lung cancer (4 cell lines); test: CellTiter-Glo Viability Assay, lung cancer; assay type: cell-based; conditions: Homo sapiens, inhibition of cancer cell proliferation
all 50 cell lines = test: CellTiter-Glo Viability Assay, average across all cell lines; assay type: cell-based; conditions: Homo sapiens; across all 50 cell lines; read-out: average EC50 for inhibition of cancer cell proliferation
Summary of the method: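 Human cancer cell lines from breast, colorectal, haematopoietic/lymphoid, liver, lung, ovarian, pancreatic and prostate tumours were seeded at 300-3,000 cells/well and exposed to compound in duplicate for four days at 37° C, 5% CO2. Viable cells were measured by ATP luminescence; EC50 values came from dose-response curves.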

[3] = test system: liver cancer (3 cell lines); test: CellTiter-Glo Viability Assay, liver cancer; assay type: cell-based; conditions: Homo sapiens, inhibition of cancer cell proliferation
CLK3 = CLK3 (Homo sapiens, UniProt P49761); test: CLK3 kinase activity assay (Z-lyte, Ser/Thr 18 peptide)
CLK3, sequence (P49761 whole entry): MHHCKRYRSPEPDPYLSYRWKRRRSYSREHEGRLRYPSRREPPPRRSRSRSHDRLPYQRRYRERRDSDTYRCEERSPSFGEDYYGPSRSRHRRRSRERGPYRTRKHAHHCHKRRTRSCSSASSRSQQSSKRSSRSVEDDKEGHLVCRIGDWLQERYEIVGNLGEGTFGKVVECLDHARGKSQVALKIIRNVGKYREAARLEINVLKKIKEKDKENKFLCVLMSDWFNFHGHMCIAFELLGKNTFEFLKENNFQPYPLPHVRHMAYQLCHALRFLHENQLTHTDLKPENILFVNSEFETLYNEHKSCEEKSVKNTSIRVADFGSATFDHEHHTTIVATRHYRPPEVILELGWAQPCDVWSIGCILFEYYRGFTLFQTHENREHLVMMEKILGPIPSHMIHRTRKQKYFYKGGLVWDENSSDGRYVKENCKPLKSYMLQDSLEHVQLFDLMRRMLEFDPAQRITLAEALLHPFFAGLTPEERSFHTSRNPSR

[4] = test system: colorectal cancer (6 cell lines); test: CellTiter-Glo Viability Assay, colorectal cancer; assay type: cell-based; conditions: Homo sapiens, inhibition of cancer cell proliferation
MCF7 = test: CellTiter-Glo Viability Assay, breast cancer; assay type: cell-based; conditions: Homo sapiens, 96 h; MCF7, breast cancer, four days; read-out: EC50
MDA-MB-231-Luc = test: CellTiter-Glo Viability Assay, breast cancer; assay type: cell-based; conditions: Homo sapiens, 96 h; MDA-MB-231-Luc, breast cancer, four days; read-out: EC50
T47D = test: CellTiter-Glo Viability Assay, breast cancer; assay type: cell-based; conditions: Homo sapiens, 96 h, breast cancer, four days, read-out: EC50
DU4475 = test: CellTiter-Glo Viability Assay, breast cancer; assay type: cell-based; conditions: Homo sapiens, DU-4475, 96 h; DU4475, breast cancer, four days; read-out: EC50
BT-549 = test: CellTiter-Glo Viability Assay, breast cancer; assay type: cell-based; conditions: Homo sapiens, 96 h; BT-549, breast cancer, four days; read-out: EC50
ZR-75-1 = test: CellTiter-Glo Viability Assay, breast cancer; assay type: cell-based; conditions: Homo sapiens, 96 h; ZR-75-1, breast cancer, four days; read-out: EC50
HCC1599 = test: CellTiter-Glo Viability Assay, breast cancer; assay type: cell-based; conditions: Homo sapiens, 96 h; HCC1599, breast cancer, four days; read-out: EC50
CAMA1 = test: CellTiter-Glo Viability Assay, breast cancer; assay type: cell-based; conditions: Homo sapiens, CAMA-1, 96 h; CAMA1, breast cancer, four days; read-out: EC50
[5] = test system: haematopoietic & lymphoid tumors (13 cell lines); test: CellTiter-Glo Viability Assay, haematopoietic & lymphoid tumors; assay type: cell-based; conditions: Homo sapiens, inhibition of cancer cell proliferation
[6] = test system: prostate cancer (5 cell lines); test: CellTiter-Glo Viability Assay, prostate cancer; assay type: cell-based; conditions: Homo sapiens
CLK2 = target: T1, CLK2 (Homo sapiens, UniProt P49760); test: CLK2 kinase activity assay (Z-lyte, Ser/Thr 6 peptide); assay type: biochemical; conditions: recombinant CLK2 kinase, ATP 60 μM; read-out: EC50
T1 construct: purchased Thermo Fisher (Life Technologies), Z'-LYTE Kinase Assay Kits
T1 sequence (P49760 whole entry): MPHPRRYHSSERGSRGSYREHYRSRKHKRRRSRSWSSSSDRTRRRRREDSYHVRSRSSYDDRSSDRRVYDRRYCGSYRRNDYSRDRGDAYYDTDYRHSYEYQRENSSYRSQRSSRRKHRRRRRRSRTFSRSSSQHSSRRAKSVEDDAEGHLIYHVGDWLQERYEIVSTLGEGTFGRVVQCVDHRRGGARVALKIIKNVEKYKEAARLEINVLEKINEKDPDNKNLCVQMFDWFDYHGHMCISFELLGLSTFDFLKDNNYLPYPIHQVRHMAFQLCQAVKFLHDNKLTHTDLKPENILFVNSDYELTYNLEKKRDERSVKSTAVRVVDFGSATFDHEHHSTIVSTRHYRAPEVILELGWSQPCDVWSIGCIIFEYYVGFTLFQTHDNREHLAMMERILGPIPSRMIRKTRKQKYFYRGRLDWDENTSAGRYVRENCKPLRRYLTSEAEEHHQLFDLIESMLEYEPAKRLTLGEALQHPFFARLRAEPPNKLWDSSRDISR
Description: All reactions were performed in duplicate.

[7] = test system: pancreatic cancer (8 cell lines); test: CellTiter-Glo Viability Assay, pancreatic cancer; assay type: cell-based; conditions: Homo sapiens, inhibition of cancer cell proliferation
[8] = PA-1, PA1 cell line, read-out: Ovarian cancer, EC50 (μM) PA1
[9] = TOV112D, TOV-112D cell line, read-out: Ovarian cancer, EC50 (μM) TOV-112D
[10] = OV-90 cell line, read-out: Ovarian cancer, EC50 (μM) OV-90
[11] = OVCAR-3 cell line, read-out: Ovarian cancer, EC50 (μM) OVCAR-3
[12] = A-427, A427 cell line, read-out: Lung cancer, EC50 (μM) A427
[13] = HCC78, HCC-78 cell line, read-out: Lung cancer, EC50 (μM) HCC-78
[14] = NCI-H460 cell line, read-out: Lung cancer, EC50 (μM) NCI-H460
[15] = NCI-H522 cell line, read-out: Lung cancer, EC50 (μM) NCI-H522
[16] = SNU-398, SNU398 cell line, read-out: Liver cancer, EC50 SNU398
[17] = HEPG2 cell line, read-out: Liver cancer, EC50 HEPG2
[18] = PLC/PRF/5 cell line, read-out: Liver cancer, EC50 PLC/PRF/5
[19] = HCT-116, HCT116 cell line, read-out: Colorectal cancer, EC50 (μM) HCT116
[20] = HT-29, HT29 cell line, read-out: Colorectal cancer, EC50 (μM) HT29
[21] = SW-620, SW620 cell line, read-out: Colorectal cancer, EC50 (μM) SW620
[22] = DLD-1 cell line, read-out: Colorectal cancer, EC50 (μM) DLD-1
[23] = SW48 cell line, read-out: Colorectal cancer, EC50 (μM) SW48
[24] = SW480 cell line, read-out: Colorectal cancer, EC50 (μM) SW480
[25] = DND41, DND-41 cell line, read-out: Haematopoietic & Lymphoid tumors, EC50 (μM) DND-41
[26] = MV4-11, MV-4-11 cell line, read-out: Haematopoietic & Lymphoid tumors, EC50 (μM) MV-4-11
[27] = Rec1, REC-1 cell line, read-out: Haematopoietic & Lymphoid tumors, EC50 (μM) REC-1
[28] = SU-DHL-4, SUDHL4 cell line, read-out: Haematopoietic & Lymphoid tumors, EC50 (μM) SUDHL4
[29] = HL-60 cell line, read-out: Haematopoietic & Lymphoid tumors, EC50 (μM) HL-60
[30] = JM1 cell line, read-out: Haematopoietic & Lymphoid tumors, EC50 (μM) JM1
[31] = JURKAT, Clone E6-1 cell line, read-out: Haematopoietic & Lymphoid tumors, EC50 (μM) JURKAT, Clone E6-1
[32] = JeKo-1 cell line, read-out: Haematopoietic & Lymphoid tumors, EC50 (μM) JeKo-1
[33] = KASUMI-1 cell line, read-out: Haematopoietic & Lymphoid tumors, EC50 (μM) KASUMI-1
[34] = Loucy cell line, read-out: Haematopoietic & Lymphoid tumors, EC50 (μM) Loucy
[35] = MOLT-4 cell line, read-out: Haematopoietic & Lymphoid tumors, EC50 (μM) MOLT-4
[36] = TF-1 cell line, read-out: Haematopoietic & Lymphoid tumors, EC50 (μM) TF-1
[37] = TOLEDO cell line, read-out: Haematopoietic & Lymphoid tumors, EC50 (μM) TOLEDO
[38] = DU-145, read-out: Prostate cancer EC50 Du-145
[39] = PC-3, PC3 cell line, inhibition of cancer cell proliferation, read-out: Prostate cancer EC50 PC3
[40] = 22Rv1 cell line, inhibition of cancer cell proliferation, read-out: Prostate cancer EC50 22Rv1
[41] = LNCap clone FGC cell line, inhibition of cancer cell proliferation, read-out: Prostate cancer EC50 LNCap clone FGC
[42] = VCaP (Sigma) cell line, inhibition of cancer cell proliferation, read-out: Prostate cancer EC50 VCaP (Sigma)
[43] = BXPC-3, BxPC3 cell line, read-out: Pancreatic cancer, EC50 BxPC3
[44] = CAPAN-1, Capan1 cell line, read-out: Pancreatic cancer, EC50 Capan1
[45] = Capan-2, Capan2 cell line, read-out: Pancreatic cancer, EC50 Capan2
[46] = MIA PaCa-2 cell line, read-out: Pancreatic cancer, EC50 MIA PaCa-2
[47] = PANC 05.04 cell line, read-out: Pancreatic cancer, EC50 PANC 05.04
[48] = PANC-1 cell line, read-out: Pancreatic cancer, EC50 PANC-1
[49] = UPAFII cell line, read-out: Pancreatic cancer, EC50 UPAFII

EC50 [1, 8]: 0.819 µM
EC50 [1, 9]: 0.533 µM
EC50 [1, 10]: 1.98 µM
EC50 [1, 11]: 0.568 µM
EC50 [2, 12]: 0.619 µM
EC50 [2, 13]: 3.02 µM
EC50 [2, 14]: 0.856 µM
EC50 [2, 15]: 0.57 µM
EC50 [3, 16]: 450 nM
EC50 [3, 17]: 1460 nM
EC50 [3, 18]: 3160 nM
EC50 (CLK3): 49.1 nM
EC50 [4, 19]: 0.611 µM
EC50 [4, 20]: 1.7 µM
EC50 [4, 21]: 0.418 µM
EC50 [4, 22]: 0.644 µM
EC50 [4, 23]: 0.151 µM
EC50 [4, 24]: 0.769 µM
EC50 (MCF7): 3.39 µM
EC50 (MDA-MB-231-Luc): 2.04 µM
EC50 (T47D): 3.55 µM
EC50 (DU4475): 411 nM
EC50 (BT-549): 786 nM
EC50 (ZR-75-1): 1.84 µM
EC50 (HCC1599): 367 nM
EC50 (CAMA1): 3.85 µM
EC50 [5, 25]: 0.798 µM
EC50 [5, 26]: 0.057 µM
EC50 [5, 27]: 0.261 µM
EC50 [5, 28]: 0.779 µM
EC50 [5, 29]: 1.64 µM
EC50 [5, 30]: 0.237 µM
EC50 [5, 31]: 0.88 µM
EC50 [5, 32]: 0.201 µM
EC50 [5, 33]: 0.273 µM
EC50 [5, 34]: 0.581 µM
EC50 [5, 35]: 0.999 µM
EC50 [5, 36]: 1.31 µM
EC50 [5, 37]: 0.182 µM
EC50 [6, 38]: 1260 nM
EC50 [6, 39]: 1230 nM
EC50 [6, 40]: 672 nM
EC50 [6, 41]: 779 nM
EC50 [6, 42]: 1480 nM
EC50 (CLK2): 0.6 nM
EC50 [7, 43]: 2030 nM
EC50 [7, 44]: 2090 nM
EC50 [7, 45]: 2720 nM
EC50 [7, 46]: 438 nM
EC50 [7, 47]: 2260 nM
EC50 [7, 48]: 2160 nM
EC50 [7, 49]: 1030 nM
SMILES: CN1CCC(Oc2ccc(NC(=O)c3n[nH]c4cc(F)c(-c5cnn(C)c5)cc34)cc2)CC1 [Compound 61]
EC50 (all 50 cell lines): 1.22 µM

EC50 [1, 8]: 3.04 µM
EC50 [1, 9]: 3.63 µM
EC50 [1, 10]: 7.97 µM
EC50 [1, 11]: 2.62 µM
EC50 [2, 12]: 4.18 µM
EC50 [2, 13]: 8.18 µM
EC50 [2, 14]: 7.41 µM
EC50 [2, 15]: 3.3 µM
EC50 [3, 16]: 1370 nM
EC50 [3, 17]: 3440 nM
EC50 [3, 18]: 9520 nM
EC50 (CLK3): 343 nM
EC50 [4, 19]: 2.93 µM
EC50 [4, 20]: 6.16 µM
EC50 [4, 21]: 1.82 µM
EC50 [4, 22]: 5.01 µM
EC50 [4, 23]: 1.49 µM
EC50 [4, 24]: 3.24 µM
EC50 (MCF7): > 10 µM
EC50 (MDA-MB-231-Luc): 6.47 µM
EC50 (T47D): 8.47 µM
EC50 (DU4475): 3870 nM
EC50 (BT-549): 4740 nM
EC50 (ZR-75-1): 6.81 µM
EC50 (HCC1599): 2330 nM
EC50 (CAMA1): 5.21 µM
EC50 [5, 25]: 7.09 µM
EC50 [5, 26]: 3.34 µM
EC50 [5, 27]: 3.52 µM
EC50 [5, 28]: 3.46 µM
EC50 [5, 29]: 8.7 µM
EC50 [5, 30]: 1.69 µM
EC50 [5, 31]: > 10 µM
EC50 [5, 32]: 1.49 µM
EC50 [5, 33]: 3.19 µM
EC50 [5, 34]: 3.72 µM
EC50 [5, 35]: 7.07 µM
EC50 [5, 36]: 6 µM
EC50 [5, 37]: 2.21 µM
EC50 [6, 38]: 6490 nM
EC50 [6, 39]: 4420 nM
EC50 [6, 40]: 3980 nM
EC50 [6, 41]: 6850 nM
EC50 [6, 42]: 6660 nM
EC50 (CLK2): 12 nM
EC50 [7, 43]: 9160 nM
EC50 [7, 44]: 4840 nM
EC50 [7, 45]: 8870 nM
EC50 [7, 46]: 1590 nM
EC50 [7, 47]: 5510 nM
EC50 [7, 48]: 5640 nM
EC50 [7, 49]: 3820 nM
SMILES: Cc1n[nH]c2cc(F)c(-c3cncc(CN4CCNCC4)c3)cc12 [Compound 63]
EC50 (all 50 cell lines): 5.05 µM
